Experimental data taken from PMC9281089 (Journal of Translational Medicine, 2022).
Entries after “also recorded” stand apart in the source; their conditions may differ. Where a name gives a salt, the structure may show the parent alone.

Tests used:
[1] = tested on: SARS-CoV-2_S (D614G)-pseudotyped lentivirus entry into ACE2-overexpressing 293T cells; type: cell-based
[2] = tested on: SARS-CoV-2_S (D614G)-pseudotyped lentivirus entry into ACE2-overexpressing Capan2 cells; type: cell-based

SMILES: N=C(N)c1ccc2cc(OC(=O)c3ccc(N=C(N)N)cc3)ccc2c1 [Nafamostat mesylate, reference compound]
- inhibiting effect on entry of the pseudovirus (EGFP/mCherry signal ratio) [1]: significant inhibiting effects
- inhibiting effect on entry of the pseudovirus (EGFP/mCherry signal ratio) [2]: exhibited an inhibiting effect; also recorded: block the pseudoviruses from entering

SMILES: COc1ccc2c3ccnc4ccc(=O)n(c2c1)c43 [TS-984, 9-Methoxycanthin-6-one]
- inhibiting effect on entry of the pseudovirus (EGFP/mCherry signal ratio) [1]: significant inhibiting effects; also recorded: greatly reduce the EGFP/mCherry signal ratio
- inhibiting effect on entry of the pseudovirus (EGFP/mCherry signal ratio) [2]: strongest and was dose-dependent; also recorded: greatly reduce the EGFP/mCherry signal ratio; also recorded: effectively block the entry of pseudovirus into Capan2 cells with ACE2 overexpression in a dose-dependent manner

SMILES: O=C1c2ccccc2C(=O)c2ccccc21 [TS-1276, anthraquinone]
- inhibiting effect on entry of the pseudovirus (EGFP/mCherry signal ratio) [1]: significant inhibiting effects
- inhibiting effect on entry of the pseudovirus (EGFP/mCherry signal ratio) [2]: did not present any significant inhibiting effects

SMILES: O=C(OC[C@H]1O[C@@H](OC(=O)c2cc(O)c(O)c(OC(=O)c3cc(O)c(O)c(O)c3)c2)[C@H](OC(=O)c2cc(O)c(O)c(OC(=O)c3cc(O)c(O)c(O)c3)c2)[C@@H](OC(=O)c2cc(O)c(O)c(OC(=O)c3cc(O)c(O)c(O)c3)c2)[C@@H]1OC(=O)c1cc(O)c(O)c(OC(=O)c2cc(O)c(O)c(O)c2)c1)c1cc(O)c(O)c(OC(=O)c2cc(O)c(O)c(O)c2)c1 [tannic acid, reference compound]
- inhibiting effect on entry of the pseudovirus [2]: only a mild inhibiting effect; also recorded: did not observe any significant inhibiting effect
